Data on one substance can be found in US20150064107A1, “IMAGING AGENT” (King's College London, priority 2013, published 2015).

“Also recorded” adds a separate entry of the source.

Test [1] in a line: In vivo PET/MRI imaging of the lymph node system after footpad injection. More on the design: species or system mouse (C57BL/6). The note with it: mouse, 6 hours post injection. On the procedure:
In vivo PET/MRI imaging of the lymph node (LN) system was carried out using a preclinical nanoScan® PET•MRI scanner with 1 T magnetic field (Mediso Ltd, H-1047, Budapest, Hungary), utilising ^18F-labelled CoxFe3-xO4@NaYF4(Yb, Er)-BP-PEG (10 K) or ^18F-labelled Fe3O4@NaYF4(Yb, Tm)-BP-PEG (2 K) NPIAs as probes. After injection of 20 μL of [^18F]-fluoride-labelled CoxFe3-xO4@NaYF4(Yb, Er)-BP-PEG solution containing 6.3 MBq radioactivity and 20 μg Fe into the rear right foot pad of a mouse (C57BL/6, female, 6-7 weeks old, 20 g), coregistered PET and MRI images were recorded 6 hours post injection. The most prominent signal was from the popliteal LN, which is the nearest draining LN from the injection point, and the next most prominent signal was from the medial iliac LN (FIG. 5a, 5c & 5d).
To further explore the potential value of these NPIAs, a more detailed lymph node study by PET/MRI imaging was undertaken, investigating the popliteal LN in response to an acute inflammatory stimulus in the foot. A solution of ^18F-labelled Fe3O4@NaYF4(Yb, Tm)-BP-PEG (20 μL, 4.5 MBq, 20 μg Fe) was injected into each of the two rear footpads of a female C57BL/6 mouse in which only the right leg was inflamed. […] A control experiment was carried out with [^18F]-fluoride but without NPs Fe3O4@NaYF4(Yb, Tm)-BP-PEG, under the same conditions. […]

Test [2] can be described thus: Ex vivo fluorescent imaging of excised popliteal lymph nodes under 980 nm laser. The note with it: multi-photon laser scanning microscope. It is filed as in vivo, mouse (C57BL/6). Here is the method: To further explore the potential value of these NPIAs, a more detailed lymph node study by PET/MRI imaging was undertaken, investigating the popliteal LN in response to an acute inflammatory stimulus in the foot. A solution of ^18F-labelled Fe3O4@NaYF4(Yb, Tm)-BP-PEG (20 μL, 4.5 MBq, 20 μg Fe) was injected into each of the two rear footpads of a female C57BL/6 mouse in which only the right leg was inflamed. […] A control experiment was carried out with [^18F]-fluoride but without NPs Fe3O4@NaYF4(Yb, Tm)-BP-PEG, under the same conditions. […] By MRI scanning prior to injection of the labellend NPs, no contrast difference was seen on MR images between the normal LN and the inflamed one. The popliteal lymph nodes on the inflamed side were dissected and viewed, together with the adjacent fatty tissue, with a Femtonics (Budapest, Hungary) Fem2D in vivo multi-photon laser scanning microscope under excitation of a 980 nm laser. […] Fluorescent NPIAs were also found inside cells of adjacent fat tissue of the inflamed popliteal LN.

For the substance [^18F]-fluoride, in test [1], the “lymph node signal on PET (and MRI) images” value is given as “no contrast in lymph nodes; also recorded: did not show any signal at the lymph nodes”. For the same substance, the “fluorescence of excised inflamed popliteal lymph node” value in test [2] is listed as “faint granular fluorescence”.
